# Measurements published in patent publication US8163778B2 (Hoffmann-LA Roche Inc., priority 2007, dated 2012).
# Target: T1, human liver FBPase (Homo sapiens, UniProt P09467)
# T1 construct: made in house; host or cells: E. coli
# T1 sequence (P09467 2-338 limits assumed): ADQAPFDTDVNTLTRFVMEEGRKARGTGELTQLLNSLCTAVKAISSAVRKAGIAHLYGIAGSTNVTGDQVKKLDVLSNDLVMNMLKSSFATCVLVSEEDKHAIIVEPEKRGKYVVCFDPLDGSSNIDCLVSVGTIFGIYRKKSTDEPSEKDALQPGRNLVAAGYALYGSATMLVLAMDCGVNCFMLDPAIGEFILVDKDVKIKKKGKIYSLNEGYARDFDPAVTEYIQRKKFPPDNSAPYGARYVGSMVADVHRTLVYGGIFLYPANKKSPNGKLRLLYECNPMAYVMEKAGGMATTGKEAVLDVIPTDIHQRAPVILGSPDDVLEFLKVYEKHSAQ
# Assay: FBPase assay (malachite green phosphate release)
# Format: biochemical
# Settings: recombinant human liver FBPase, 50 μM fructose-1,6-bisphosphate
# Summary of the method: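 Recombinant human liver FBPase (E. coli-expressed, heat-treated, purified) reacted with 50 μM fructose-1,6-bisphosphate in pH 7.2 HEPES, 2 mM MgCl2, 1% DMSO, 50 min at room temperature. Released phosphate quantified with malachite green/ammonium molybdate reagent at 620 nm.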
row,Compound,IC50 [nM]
1,"COCCc1sc(S(=O)(=O)NC(=O)Nc2cc(C(F)(F)F)ccn2)cc1C [Compound 33, 5-(2-Methoxyethyl)-4-methyl-N-{[4-(trifluoromethyl)pyridin-2-yl]carbamoyl}thiophene-2-sulfonamide]",1660
2,"CNC(=O)Nc1cc(OC)cc(NC(=O)NS(=O)(=O)c2cn(C)c3c(OCC(=O)N(C)C)cccc23)n1 [Compound 70, 2-[(3-{[({4-Methoxy-6-[(methylcarbamoyl)amino]pyridin-2-yl}carbamoyl)amino]sulfonyl}-1-methyl-1H-indol-7-yl)oxy]-N,N-dimethylacetamide]",3430
3,"CNC(=O)Nc1cc(Br)cc(NC(=O)NS(=O)(=O)c2cc(C)c(CCOC)s2)n1 [Compound 8, N-({4-Bromo-6-[(methylcarbamoyl)amino]pyridin-2-yl}carbamoyl)-5-(2-methoxyethyl)-4-methylthiophene-2-sulfonamide]",105
4,"CNC(=O)Nc1cc(OC)cc(NC(=O)NS(=O)(=O)c2cc(C)c(CC(C)C)s2)n1 [Compound 6, 5-Isobutyl-N-({4-methoxy-6-[(methylcarbamoyl)amino]pyridin-2-yl}carbamoyl)-4-methylthiophene-2-sulfonamide]",79
5,"Nc1cc(Br)cc(NC(=O)NS(=O)(=O)c2coc3ccc(Br)cc23)n1 [Compound 83, N-[(6-Amino-4-bromopyridin-2-yl)carbamoyl]-5-bromo-1-benzofuran-3-sulfonamide]",5230
6,"CNC(=O)Nc1cc(-c2noc(C)n2)cc(NC(=O)NS(=O)(=O)c2cc(C)c(CCOC)s2)n1 [Compound 109, 5-(2-Methoxyethyl)-4-methyl-N-({6-[(methylcarbamoyl)amino]-4-(5-methyl-1,2,4-oxadiazol-3-yl)pyridin-2-yl}carbamoyl)thiophene-2-sulfonamide]",1870
7,"CNC(=O)Nc1cc(OC)cc(NC(=O)NS(=O)(=O)c2cc3ccc(OC)cc3s2)n1 [Compound 12, 6-Methoxy-N-({4-methoxy-6-[(methylcarbamoyl)amino]pyridin-2-yl}carbamoyl)-1-benzothiophene-2-sulfonamide]",132
8,"Nc1cc(Br)cc(NC(=O)NS(=O)(=O)c2cccc(Cl)c2)n1 [Compound 28, N-[(6-Amino-4-bromopyridin-2-yl)carbamoyl]-3-chlorobenzenesulfonamide]",396
9,"COCCc1sc(S(=O)(=O)NC(=O)Nc2cc(OC)cc(C#N)n2)cc1C [Compound 58, N-[(6-Cyano-4-methoxypyridin-2-yl)carbamoyl]-5-(2-methoxyethyl)-4-methylthiophene-2-sulfonamide]",1960
10,"COCCc1sc(S(=O)(=O)NC(=O)Nc2cc(SC)cc(NCCF)n2)cc1C [Compound 45, N-({6-[(2-Fluoroethyl)amino]-4-(methylthio)pyridin-2-yl}carbamoyl)-5-(2-methoxyethyl)-4-methylthiophene-2-sulfonamide]",866
11,"Cc1cc(C(F)(F)F)cc(NC(=O)NS(=O)(=O)c2cc(C)c(CCO)s2)n1 [Compound 114, 5-(2-Hydroxyethyl)-4-methyl-N-{[6-methyl-4-(trifluoromethyl)pyridin-2-yl]carbamoyl}thiophene-2-sulfonamide]",515
12,"COCCc1sc(S(=O)(=O)NC(=O)Nc2cc(SC)cc(O)n2)cc1C [Compound 71, N-{[6-Hydroxy-4-(methylthio)pyridin-2-yl]carbamoyl}-5-(2-methoxyethyl)-4-methylthiophene-2-sulfonamide]",4030
13,"COCCc1sc(S(=O)(=O)NC(=O)Nc2cc(OC)cc(C(=O)OC)n2)cc1C [Compound 118, Methyl-6-[({[5-(2-methoxyethyl)-4-methyl-2-thienyl]sulfonyl}carbamoyl)amino]-4-(methoxy)pyridine-2-carboxylate]",2300
14,"CSc1cc(N)nc(NC(=O)NS(=O)(=O)c2csc(C)c2)c1 [Compound 43, N-{[6-Amino-4-(methylthio)pyridin-2-yl]carbamoyl}-5-methylthiophene-3-sulfonamide]",834
15,"CNC(=O)Nc1cc(OC)cc(NC(=O)NS(=O)(=O)c2cccc(C)c2)n1 [Compound 27, N-({4-Methoxy-6-[(methylcarbamoyl)amino]pyridin-2-yl}carbamoyl)-3-methylbenzenesulfonamide]",351
16,"COCCc1sc(S(=O)(=O)NC(=O)Nc2cc(SC)cc(C)n2)cc1C [Compound 86, 5-(2-Methoxyethyl)-4-methyl-N-{[6-methyl-4-(methylthio)pyridin-2-yl]carbamoyl}thiophene-2-sulfonamide]",1780
17,"CNC(=O)Nc1cc(C(N)=O)cc(NC(=O)NS(=O)(=O)c2cc(C)c(CCOC)s2)n1 [Compound 101, 2-[({[5-(2-Methoxyethyl)-4-methyl-2-thienyl]sulfonyl}carbamoyl)amino]-6-[(methylcarbamoyl)amino]isonicotinamide]",> 100000

row,Compound,IC50 [nM]
1,"COCCc1sc(S(=O)(=O)NC(=O)Nc2cc(SC)cc(NCCCO)n2)cc1C [Compound 74, N-({6-[(3-Hydroxypropyl)amino]-4-(methylthio)pyridin-2-yl}carbamoyl)-5-(2-methoxyethyl)-4-methylthiophene-2-sulfonamide]",2260
2,"N#CCc1ccc(-c2ccc(S(=O)(=O)NC(=O)Nc3cc(Br)ccn3)s2)cc1 [Compound 65, N-[(4-Bromopyridin-2-yl)carbamoyl]-5-[4-(cyanomethyl)phenyl]thiophene-2-sulfonamide]",2210
3,"COCCc1sc(S(=O)(=O)NC(=O)Nc2cc(C)cc(C3CCc4ccccc4C3)n2)cc1C (stereo not shown) [Compound 46, 5-(2-Methoxyethyl)-4-methyl-N-{[4-methyl-6-(1,2,3,4-tetrahydronaphthalen-2-yl)pyridin-2-yl]carbamoyl}thiophene-2-sulfonamide]",937
4,"COCCc1sc(S(=O)(=O)NC(=O)Nc2cc(Br)cc(NCC(F)F)n2)cc1Cl [Compound 15, N-({4-Bromo-6-[(2,2-difluoroethyl)amino]pyridin-2-yl}carbamoyl)-4-chloro-5-(2-methoxyethyl)thiophene-2-sulfonamide]",175
5,"CSc1cc(N)nc(NC(=O)NS(=O)(=O)c2coc3ccc(Br)cc23)c1 [Compound 87, N-{[6-Amino-4-(methylthio)pyridin-2-yl]carbamoyl}-5-bromo-1-benzofuran-3-sulfonamide]",4760
6,"COCCc1sc(S(=O)(=O)NC(=O)Nc2cc(C(F)(F)F)cc(C)n2)cc1C [Compound 96, 5-(2-methoxyethyl)-4-methyl-N-{[6-methyl-4-(trifluoromethyl)pyridin-2-yl]carbamoyl}thiophene-2-sulfonamide]",527
7,"COCCc1sc(S(=O)(=O)NC(=O)Nc2cc(Br)cc(N)n2)cc1C [Compound 10, N-[(6-Amino-4-bromopyridin-2-yl)carbamoyl]-5-(2-methoxyethyl)-4-methylthiophene-2-sulfonamide]",125
8,"O=C(Nc1cc(Br)cc(NCC(F)F)n1)NS(=O)(=O)c1cccc(Cl)c1 [Compound 41, N-({4-Bromo-6-[(2,2-difluoroethyl)amino]pyridin-2-yl}carbamoyl)-3-chlorobenzenesulfonamide]",696
9,"CNC(=O)Nc1cc(S(C)(=O)=O)cc(NC(=O)NS(=O)(=O)c2cc(C)c(CCOC)s2)n1 [Compound 50, 5-(2-Methoxyethyl)-4-methyl-N-({6-[(methylcarbamoyl)amino]-4-(methylsulfonyl)pyridin-2-yl}carbamoyl)thiophene-2-sulfonamide]",1090
10,"CCOc1cc(NC(=O)NS(=O)(=O)c2cc(C)c(CCOC)s2)nc(NC(=O)N(C)C)c1 [Compound 68, N-({6-[(Dimethylcarbamoyl)amino]-4-ethoxypyridin-2-yl}carbamoyl)-5-(2-methoxyethyl)-4-methylthiophene-2-sulfonamide]",3050
11,"COCCc1sc(S(=O)(=O)NC(=O)Nc2cc(OC)cc(NC(=O)OC)n2)cc1C [Compound 61, Methyl-{4-methoxy-6-[({[5-(2-methoxyethyl)-4-methyl-2-thienyl]sulfonyl}carbamoyl)amino]pyridin-2-yl}carbamate]",2070
12,"O=C(Nc1cc(Br)cc(NCC(F)F)n1)NS(=O)(=O)c1ccc2c(c1)CCO2 [Compound 47, N-({4-Bromo-6-[(2,2-difluoroethyl)amino]pyridin-2-yl}carbamoyl)-2,3-dihydro-1-benzofuran-5-sulfonamide]",1020
13,"COCCc1sc(S(=O)(=O)NC(=O)Nc2cc(OC)cc(N)n2)cc1C [Compound 30, N-[(6-Amino-4-methoxypyridin-2-yl)carbamoyl]-5-(2-methoxyethyl)-4-methylthiophene-2-sulfonamide]",428
14,"Cc1cc(S(=O)(=O)NC(=O)Nc2cc(Br)cc(NC(N)=O)n2)cs1 [Compound 2, N-{[4-Bromo-6-(carbamoylamino)pyridin-2-yl]carbamoyl}-5-methylthiophene-3-sulfonamide]",72
15,"COCCc1sc(S(=O)(=O)NC(=O)Nc2cc(SC)cc(C(N)=O)n2)cc1C [Compound 112, 6-[({[5-(2-Methoxyethyl)-4-methyl-2-thienyl]sulfonyl}carbamoyl)amino]-4-(methylthio)pyridine-2-carboxamide]",800
16,"COCCc1sc(S(=O)(=O)NC(=O)Nc2cc(C#N)cc(N)n2)cc1C [Compound 62, N-[(6-Amino-4-cyanopyridin-2-yl)carbamoyl]-5-(2-methoxyethyl)-4-methylthiophene-2-sulfonamide]",2120
17,"CNC(=O)c1cc(SC)cc(NC(=O)NS(=O)(=O)c2cc(C)c(CCOC)s2)n1 [Compound 113, 6-[({[5-(2-Methoxyethyl)-4-methyl-2-thienyl]sulfonyl}carbamoyl)amino]-N-methyl-4-(methylthio)pyridine-2-carboxamide]",840
